In ChEMBL document CHEMBL4033669, “Guanylthiourea derivatives as potential antimalarial agents: Synthesis, in vivo and molecular modelling studies” (Eur J Med Chem, 2017):
Activity calls are given as the source filed them. The rule behind the calls is not given here.

Assays:
Plasmodium berghei [1] = experiment: (§1) Antimalarial activity against Plasmodium berghei in Swiss mouse inoculated with parasite infected red blood cells assessed as reduction in parasitemia at 100 mg/kg/day, ip administered 4 hrs post infection on day 0, 1, 2 , 3 measured on day 4 post infection by giemsa staining based microscopic method; format: functional, organism-based
Mus musculus = experiment: Toxicity in Swiss mouse inoculated with parasite infected red blood cells assessed as mortality at 100 mg/kg/day, ip administered 4 hrs post infection on day 0, 1, 2 , 3 measured on day 4; format: organism-based; conditions: in vivo
Plasmodium berghei [2] = experiment: as §1, with “day 7” for “day 4”; format: functional, organism-based
Plasmodium berghei [3] = experiment: Antimalarial activity against Plasmodium berghei in Swiss mouse inoculated with parasite infected red blood cells assessed as mean survival time at 100 mg/kg/day, ip administered 4 hrs post infection on day 0, 1, 2 , 3; format: functional
[4] = Oral bioavailability in Sprague-Dawley rat at 10 mg/kg, administered via gavage; format: ADME, organism-based; conditions: in vivo
[5] = Apparent permeability across apical to basolateral side in human Caco2 cells at 50 uM after 90 mins by LC-MS/MS method; format: ADME, cell-based; conditions: Caco-2

| Compound | Activity (Plasmodium berghei [1]) | Activity (Mus musculus) | further results |
| --- | --- | --- | --- |
| N#Cc1ccc(CS/C(N)=N/C(=N)N)cc1 | inactive | – | – |
| Cc1ccc(CSC(=N)N=C(N)N)cc1 | inactive | Toxic | – |
| N=C(N)/N=C(\N)SCCOc1nc2ccccc2s1 | – | – | Activity (Plasmodium berghei [2]): Active |
| N=C(N=C(N)N)SCc1cccc(I)c1 | inactive | Toxic | – |
| N=C(N)NC(=N)SCc1cccc([N+](=O)[O-])c1 | inactive | Toxic | – |
| N#Cc1ccc(CSC(=N)NC(=N)N)cc1 | – | Toxic | – |
| N=C(N)/N=C(\N)SCCCOc1c(Cl)cc(Cl)cc1Cl | – | – | MST (Plasmodium berghei [3]): 24 days |
| N=C(N)/N=C(\N)SCc1ccccc1C(F)(F)F | inactive | Toxic | – |
| N=C(N)/N=C(\N)SCc1cccc(Cl)c1 | inactive | Toxic | – |
| CC1(C)N=C(N)N=C(N)N1OCCCOc1cc(Cl)c(Cl)cc1Cl | – | – | bioavailability [4]: < 1%; Papp A→B at 1.5 h, 50 µM [5]: < 0.12 ×10⁻⁶ cm/s |
| N=C(N)/N=C(\N)SCc1ccc(OCc2cccc(Br)c2)cc1 | inactive | Toxic | – |
| N=C(N)/N=C(\N)SCc1ccccc1[N+](=O)[O-] | inactive | Toxic | – |
| N=C(N)/N=C(\N)SCCOc1cccc(Br)c1 | – | – | MST (Plasmodium berghei [3]): 25 days |
| N=C(N)/N=C(\N)SCc1cccc(CS/C(N)=N/C(=N)N)c1 | – | – | MST (Plasmodium berghei [3]): 20 days |
| N=C(N)/N=C(\N)SCCCOc1ccc(Cl)c(Cl)c1 | – | – | MST (Plasmodium berghei [3]): 24 days |
| N=C(N)/N=C(\N)SCc1ccc(F)cc1 | inactive | Toxic | – |
| N=C(N)/N=C(\N)SCCCOc1ccc(I)cc1 | – | – | MST (Plasmodium berghei [3]): 26 days |
| N=C(N)NC(=N)SCc1cccc(C(F)(F)F)c1 | inactive | Toxic | – |
